Read-outs that look alike come from different tables or passages of the source.
Tests used:
Green Foxtail = assay: Ex 5/7 greenhouse spray, bleaching/injury ratings; format: in vivo; details: Green Foxtail
Protocol: (§1) Containers were watered as needed based on species and water usage. The greenhouse was heated to keep temperatures above 50° F. (10° C.) and ventilated as needed to keep temperatures below 100° F. (38° C.). Typical daytime temperatures in the greenhouse were 80-90° F. (27-32° C.) and nighttime temperatures were between 50-60° F. (10-16° C.). The soil employed was Promix BX potting soil. Overall moisture conditions were normal and the closest weather station was on-site. Conditions and equipment employed in this Example are tabulated below in Tables 5-1 and 5-2.
(§2) All containers were moved outdoors from the greenhouse and arranged in blocks by treatment for the herbicide applications. A single spray application was applied to each block containing four repetitions of each species for each treatment. Plants were then immediately returned to the greenhouse and irrigated with approximately ¼″ water 1-3 hrs after treatment with a hose end sprayer. Only the Poa plants were trimmed with scissors two days prior to treatment at a height of approximately 3 inches.
(§3) Referring to FIGS. 2A-B, 3A-C, 4A-C, and 5A-D, all ratings of injury or bleaching are based on a scale from 1 to 9. […] Any bleaching measurement 4 and above was considered unacceptable for desirable turf species. In injury measurements, 1 indicates no injury while 9 indicates a dead plant. Any injury measurement 4 and above was considered unacceptable for desirable turf species). Density correlates with percent cover where 1 indicates no grass while 9 indicates a full pot.
(§4) Replications employed include 4, Untreated treatments: 1, Design: Randomized Complete Block, Treatment units: US standard, Treated plot size Width: 4 feet, Treated plot size Length: 4 feet, Application volume: 50 gal/ac, Mix size: 0.5562 liters, Mix overage: 100%, Format definitions: G-All7.DEF, G-All7.FRM.
(§5) In evaluating synergism, the data from Example 5 above were converted to % of control. This was done based on the data provided on a 1-9 scale detailed in Example 5. Expected values were computed from the % of control data by the formula for expected control=[…], where A is the % of control value for herbicide A alone and B is the % of control value for herbicide B alone.

Poa annua = assay: Ex 5/7 greenhouse spray, bleaching/injury ratings; format: in vivo; details: Poa
Protocol: as §1, §2
(§6) Transplanted tillering Kentucky Bluegrass was 5 to 6 months old, transplanted Poa annua was 5 to 6 months old. Tall fescue was seeded into the crabgrass pots. St. Augustine plants (Floratam and Saphire) were shipped from Port St. Lucie, Fla. Only two replicates of Saphire St. Augustine grass were used due to plant availability.
as §3, §4, §5

Crabgrass sp. = assay: Ex 5/7 greenhouse spray, bleaching/injury/density ratings; format: in vivo; details: Crabgrass
Protocol: as §1, §2, §6, §3, §4, §5

St. Augustine-Floratum = details: St. Augustine Floratam
Protocol: as §1, §2, §6, §3, §4, §5

St. Augustine-Sapphire = details: in vivo
Protocol: as §1, §2, §6, §3, §4, §5

[1] = Days After First/Last Applic. 41 41, Trt-Eval Interval 31 DA-A

Structure (SMILES): CC(C)c1nn(C(=O)NC(C)(C)C)c(=O)n1N [2 Amicarbazone]
- Injury (Green Foxtail; 6 DA-A): 1.5 f
- Injury (Green Foxtail; 7 DA-A): 1.5 c
- Bleaching (Green Foxtail; 10 DA-A): 1.0 c
- Bleaching (Green Foxtail; 14 DA-A): 1
- Injury (Green Foxtail; 14 DA-A): 1.3
- Bleaching (Green Foxtail; 16 DA-A): 1
- Injury (Green Foxtail; 16 DA-A): 1.8
- Bleaching (Green Foxtail; 20 DA-A): 1.3 c
- Injury (Green Foxtail; 20 DA-A): 1.8
- Injury (Green Foxtail; 24 DA-A): 2
- Bleaching (Green Foxtail; 31 DA-A): 3.0 a
- Injury (Green Foxtail; 31 DA-A): 2.8
- Bleaching (Poa annua; 6 DA-A): 1.0 a
- Bleaching (Poa annua; 7 DA-A): 1.0 a
- Injury (Poa annua; 10 DA-A): 1.0 e
- Bleaching (Poa annua; 14 DA-A): 1.0 b
- Injury (Poa annua; 14 DA-A): 1.8
- Bleaching (Poa annua; 16 DA-A): 1.0 b
- Injury (Poa annua; 16 DA-A): 2.5
- Bleaching (Poa annua; 20 DA-A): 1.0 a
- Injury (Poa annua; 20 DA-A): 2.5
- Injury (Poa annua; 24 DA-A): 2.5 cd
- Injury (Poa annua; 31 DA-A): 3.3 c
- Injury (Poa annua; [1]): 3.8 c
- Bleaching (Crabgrass sp.; 6 DA-A): 1.3 f
- Injury (Crabgrass sp.; 6 DA-A): 1.5
- Bleaching (Crabgrass sp.; 7 DA-A): 1.0 c
- Injury (Crabgrass sp.; 7 DA-A): 1.0 e
- Bleaching (Crabgrass sp.; 10 DA-A): 1.0 c
- Bleaching (Crabgrass sp.; 14 DA-A): 1.0 c
- Injury (Crabgrass sp.; 14 DA-A): 1
- Bleaching (Crabgrass sp.; 16 DA-A): 1.3 c
- Injury (Crabgrass sp.; 16 DA-A): 1.3
- Bleaching (Crabgrass sp.; 20 DA-A): 1.3
- Injury (Crabgrass sp.; 20 DA-A): 1.3 c
- % Crab Cvr (Crabgrass sp.; 24 DA-A): 7.8 a %
- Injury (Crabgrass sp.; 24 DA-A): 1.5 c
- % Crab Cvr (Crabgrass sp.; 31 DA-A): 8.3 a %
- Bleaching (Crabgrass sp.; 31 DA-A): 1.0 b
- % Crab Cvr (Crabgrass sp.; 41 DA-A): 9.0 a %
- Bleaching (Crabgrass sp.; 41 DA-A): 1.0 a
- Bleaching (St. Augustine-Floratum; 6 DA-A): 1.0 a
- Bleaching (St. Augustine-Floratum; 7 DA-A): 1.0 c
- Bleaching (St. Augustine-Floratum; 10 DA-A): 1.0 c
- Bleaching (St. Augustine-Floratum; 14 DA-A): 1.0 c
- Bleaching (St. Augustine-Floratum; 16 DA-A): 1.0 e
- Bleaching (St. Augustine-Floratum; 20 DA-A): 1.0 b
- Bleaching (St. Augustine-Floratum; 31 DA-A): 1.0 c
- Bleaching (St. Augustine-Floratum; [1]): 1.0 a
- TurfQuality (St. Augustine-Floratum; [1]): 6.8 bc
- TurfQuality (St. Augustine-Sapphire): 7.0 a
